Source: patent publication US20220273752A1, “MODULATION OF DENDRITIC CELL FUNCTION BY THE PHOSPHOLIPID MESSENGER LPA” (Cornell University, priority 2019, published 2022)

Columns and labels:
PERK in murine DCs = experiment: PERK inhibitor in murine DCs in vitro (data not shown); format: cell-based
Source text: (§1) The structure of AMG PERK 44 is shown below as a HCl salt.

[1] = system: PERK in human monocyte-derived DCs; experiment: RT-qPCR gene expression in human monocyte-derived DCs treated with LPA and TM, with or without PERK inhibitor; format: cell-based; conditions: LPA 100 μM and TM 1 μg/ml, 6 hours; RT-qPCR relative to ACTB
Description: Monocyte-derived DCs were generated from peripheral human blood and cells were treated for 6 hours with LPA (100 μM), TM (1 μg/ml) or the combination of both, in the presence or absence of the PERK inhibitor AMG PERK 44. Gene expression was subsequently determined by RT-qPCR relative to endogenous ACTB in each sample. FIG. 6A graphically illustrates expression of the PERK-dependent ER stress response gene DDIT3 in monocyte-derived DCs with or without treatment by AMG PERK 44. FIG. 6B graphically illustrates expression of IL6 in monocyte-derived DCs with or without treatment by AMG PERK 44. FIG. 6C graphically illustrates expression of IL1B in monocyte-derived DCs with or without treatment by AMG PERK 44. FIG. 6D graphically illustrates expression of PTGS2 in monocyte-derived DCs with or without treatment by AMG PERK 44. FIG. 6E graphically illustrates expression of VEGFA in monocyte-derived DCs with or without treatment by AMG PERK 44.
as §1

[2] = system: ID8-based ovarian cancer cells (Enpp2 sgRNA or control sgRNA); experiment: Host survival of mice bearing autotaxin-deficient (Enpp2 sgRNA) or control sgRNA ID8-based ovarian cancer; format: in vivo, mouse; conditions: for host survival in mice bearing autotaxin-deficient ovarian cancer: Enpp2 sgRNA tumors, compared with all other experimental groups
Source text: FIG. 17A-17C illustrate host survival and disease progression in mice bearing autotaxin-deficient ovarian cancer (Enpp2 sgRNA) and treated with the TLR3 agonist Poly(1:C). FIG. 17A schematically illustrates the experimental scheme and treatment regimen. FIG. 17B graphically illustrates the survival of the indicated groups when treated as described in FIG. 17A. […] FIG. 17C graphically illustrates ascites accumulation over time of the groups of animals treated as described in FIG. 17A. ****P<0.0001.
FIG. 18A-18C illustrate that blockade of the type-I IFN receptor 1 (IFNAR1) abrogates the therapeutic effects Poly-(I:C) in mice bearing autotaxin-deficient ovarian tumors. FIG. 18A schematically illustrates the experimental scheme and treatment regimen employed. FIG. 18B graphically illustrates the percent survival for the groups described in FIG. 18A. […] FIG. 18C graphically illustrates ascites accumulation over time of the groups of animals treated as described in FIG. 18A. ***P<0.0005, ****P<0.0001.
FIG. 19A-19C illustrate the effects of the PARP inhibitor Talazoparib in mice bearing autotaxin-deficient ovarian cancer cells. FIG. 19A schematically illustrates the experimental scheme and treatment regimen employed. FIG. 19B graphically illustrates the percent survival for the groups described in FIG. 19A. […] FIG. 19C graphically illustrates ascites accumulation over time of the groups of animals treated as described in FIG. 19A. **P<0.001, ***P<0.0005, ****P<0.0001.
To define the in vivo relevance of the findings related to type-I IFN expression, the inventors abrogated the gene encoding the LPA-generating enzyme autotaxin (Enpp2) in ID8-based ovarian cancer cells lines using CRISPR-Cas9.
Based on these key findings, experiments were then performed to determine whether treatment with the TLR3 agonist Poly(I:C), which can enhance type-I IFN immune responses, could increase survival in mice bearing autotaxin-deficient ovarian tumors.
To determine whether these effects are really mediated by enhanced type-I IFN signaling, mice were treated with anti-IFNAR1 blocking antibodies. […]

[3] = system: tumor-associated dendritic cells (tDCs); experiment: Ex vivo treatment of ovarian cancer ascites, gene expression in tumor-associated DCs; format: cell-based, mouse; conditions: ascites incubated ex vivo with 200 nM or 1000 nM, DCs isolated 24 h later; relative to Actb
Source text: FIG. 7A-7B illustrate that conditional PERK deletion in CD11c^+ immune cells (Perk^f/f Cd11c-Cre) delays metastatic ovarian cancer progression. FIG. 7A illustrates survival of female mice of the indicated genotypes (n=8/group) that were intraperitoneally challenged with parental ID8 ovarian cancer cells and host survival was monitored over time. *P<0.05. ****P<0.0001. n=8/group. FIG. 7B graphically illustrates survival of female mice of the indicated genotypes (n=8/group) that were intraperitoneally challenged with variant ovarian cancer cells that are highly aggressive and overexpress VEGFA and Defb29 (ID8-Defb29/Vegf-A). Host survival was monitored over time. *P<0.05. ****P<0.0001. n=8/group. FIG. 8A-8D graphically illustrate expression of LPA/ER stress-induced tumorigenic and immunomodulatory genes by tumor-associated dendritic cells (tDCs) present in ovarian cancer ascites can be diminished using a small-molecule inhibitor targeting autotaxin.

[4] = system: ovarian cancer cells that overexpress VEGFA and Defb29 (ID8-Defb29/Vegf-A); experiment: Anti-tumor efficacy (host survival) in mice bearing ID8-Defb29/Vegf-A ovarian cancer; format: in vivo, mouse; conditions: mice bearing metastatic ovarian cancer
Source text: FIG. 9A is a schematic diagram illustrating the treatment of female mice that were intraperitoneally injected with ID8 ovarian cancer cells overexpressing VEGFA and Def29b. FIG. 9B graphically illustrates host survival as monitored over time of the mice treated as described for FIG. 9A. ***P<0.001. ****P<0.0001.
FIG. 20A schematically illustrates the experimental scheme and treatment regimen employed.
FIG. 20B graphically illustrates the percent survival for the groups described in FIG. 20A. […] FIG. 20C graphically illustrates ascites accumulation over time of the groups of animals treated as described in FIG. 20A. **P<0.001, ***P<0.001. ****P<0.0001.
Consequently, production of this bioactive lipid mediator limits the effects of immunotherapies such as Poly-(I:C) treatment, and of novel chemotherapeutic interventions such as PARP inhibitors. Targeting the autotaxin-LPA pathway may therefore be beneficial to control ovarian cancer progression and unleash protective anti-tumor immune responses that extend host survival. […] Therefore, our findings indicate that autotaxin inhibitors could be repurposed to maximize the efficacy of PARP inhibitors and awaken protective type-I IFN responses in ovarian cancer patients.
Methods similar to those described above were used to evaluate the anti-tumor effects of various autotaxin and LPA receptor inhibitors. The inhibitors were administered to mice that had received ovarian cancer cells that overexpress VEGFA and Defb29 (ID8-Defb29/Vegf-A).

**Q.** Which results are given for `Cc1ccc2cc(-c3c(C)ccc(C(=O)c4c(-c5ccccc5)n(C)n(-c5ccccc5)c4=O)c3N)ccc2n1` [AMG PERK 44]?
**A.** effect compared with PERK deletion in murine DCs (PERK in murine DCs): recapitulate the effects of PERK deletion; induction of pro-tumoral factors (IL6, IL1B, PTGS2, VEGFA) in LPA-exposed human DCs undergoing ER stress [1]: prevents induction of pro-tumoral factors

**Q.** Poly(I:C) was tested. Which “host survival in mice bearing autotaxin-deficient ovarian cancer” value [2] did it give?
**A.** The value was “remarkable increase in survival”.

**Q.** And the “host survival, treatment alone” value ([2]; mice bearing control sgRNA ovarian cancer)?
**A.** Its value is “extended host survival”.

**Q.** For `Cn1ncnc1[C@H]1c2n[nH]c(=O)c3cc(F)cc(c23)N[C@@H]1c1ccc(F)cc1` [Talazoparib], which “host survival in mice bearing autotaxin-deficient ovarian cancer” value [2] is on record?
**A.** The value was “significant increase in host survival”.

**Q.** Which results are given for `CCc1nc2c(C)cc(N3CCN(CC(=O)N4CC(O)C4)CC3)cn2c1N(C)c1nc(-c2ccc(F)cc2)c(C#N)s1` [GLPG1690]?
**A.** expression of LPA/ER stress-induced Il1b, Il6, Ptgs2 and Vegf-α in tumor-associated DCs [3]: decreased the expression; host survival, single treatment ([4]; single agent): modestly extended host survival; host survival, combined with Talazoparib ([4]; with PARP inhibitor Talazoparib (FIG. 20)): significantly improved the therapeutic effects of Talazoparib; host survival, combined with chemotherapy ([4]; with chemotherapy (FIG. 9)): significantly enhanced the effects of chemotherapy
